Assay results as given in PMC8861431, “Tissue Pharmacokinetic Properties and Bystander Potential of Hypoxia-Activated Prodrug CP-506 by Agent-Based Modelling” (Frontiers in Pharmacology, 2022).
Like-named read-outs stand apart in the source and are kept apart here. Each block holds one molecule with its values, some of them ahead of it.

Legend:
[1] = tested on: POR-R MCLs; settings: established value for the internal standard; ref Wilson et al., 2004; cited from earlier work
[2] = Media stability studies (stirred medium without serum, 37°C); type: physicochemical; settings: for half-life at 100 µM: 37°C, aerobic, medium without serum/cells, read-out: Half-life (T1/2) in stirred medium
Procedure: The stability of each compound was determined in stirred medium (without serum) maintained under aerobic conditions by the constant supply of a humidified gas mixture comprised of 21% O2, 5% CO2 with balance N2. Vials were spiked with 100 µM of the relevant compound, and samples were collected using a positive displacement pipettor for up to 3 h thereafter. The collected samples were then treated with two-volumes of ice-cold acetonitrile containing 2 µM of the relevant deuterated (D8) internal standard and stored at −80°C until LC-MS/MS analysis.
(§1) The LC system for tandem MS consisted of an Agilent 1200 autosampler (4°C) and binary pump, a 3.0 × 50 mm, 1.8-micron Zorbax SB-C18 column (Agilent; PN: 827975-302) and 2.1 × 7 mm guard column (Alltech, IL) maintained at 35°C, at a pressure of <400 bar and flow rate of 0.3 ml/min. The mobile phase comprised a gradient of 0.01% formic acid in 80% acetonitrile - 20% water, v/v (solvent A), and 0.01% formic acid in water (solvent B). Initial mobile phase composition was 20% solvent A and 80% solvent B, increasing to 60% A (0–3 min) then 80% A (3–5.45 min), returning to initial conditions (5.5–6 min). Post-run time was 1 min, and the total run time was […]. Mass spectrometric detection was carried out using an Agilent 6410 triple quadrupole mass spectrometer equipped with a multimode ionization (MMI) source. The mass spectrometer was operated in electrospray positive ionization mode using multiple reaction monitoring (MRM), with Q1 & Q3 set to unit resolution ([…]). The electrospray ionization parameters, optimized for the parent molecular ion ([M+H]+) abundance were: drying gas temperature 325°C, vaporiser temperature 150°C, drying gas flow 5 L/min, nebuliser pressure 50 psi, capillary voltage 1.8 kV, Delta EMV 300 V. Ultra-pure nitrogen was used as collision gas. The divert valve feature of the Agilent 6410 triple quadrupole mass spectrometer was utilised to prevent the eluate from entering the ionisation source chamber during the first 0.5 min of each run. For CP-506 samples, positively charged ions representing the [M+H]+ for CP-506 and CP-506-D8 were collisionally dissociated to form specific product ions which were monitored in MS2 (unit resolution). The MRM transition, ionization mode, collision energy, dwell time, fragmentor voltage and retention time for all compounds is provided in Supplementary Table S2. Agilent MassHunter software (v.4.04.00) was used for data acquisition and chromatographic peak integration.

[3] = tested on: HCT-116 cell line panel; assay: Anti-proliferative IC50 assay of authentic CP-506 metabolites; type: cell-based, human
Procedure: Cells (700–1,000 per well) were seeded with 100 µl culture medium into 96-well plates and left to attach for 2 h in a humidified 37°C incubator. Compounds were prepared in culture medium and serially diluted (1:3) in the well volume. […] Aerobic experiments were performed under standard tissue culture conditions (21% O2), and the anoxic experiments were performed in parallel in a 5% H2/Pd catalyst anaerobic chamber (Shellab Bactron, Sheldon manufacturing Inc., Cornelius, OR) using pre-equilibrated media and plasticware. All anoxia experiments were conducted using a catalyst-scrubbed anaerobic chamber, unless otherwise specified, with gas oxygen measurements of <1 ppm O2. Cells were then washed three times and left to grow for 96 h before cell density determination using a sulforhodamine B (SRB) assay ([Vichai and Kirtikara, 2006]). To this end, the cells were fixed by layering 50 µl of trichloroacetic acid (40% w/v in MilliQ water) on top of the culture media (150 µl) in each well for 1 h at 4°C. Plates were rinsed under running tap water and stained with 50 µl of SRB (0.4% w/v in MilliQ water containing 1% v/v acetic acid) for 30 min at room temperature. Plates were rapidly destained by rinsing three times in tap water containing 1% (v/v) acetic acid. The stain was solubilized by adding 100 µl of 10 mM unbuffered Tris base to each well with gentle rocking for 1 h. Plates were read on a Biotek ELx808 Absorbance Microplate Reader at 490 nm using KC4 software. The IC50 value (concentration required to reduce staining to 50% of the untreated control on the same plate) for each compound was determined by interpolation using a 4-parameter logistic regression model.
FIGURE 3 Hypoxia-dependent metabolism of CP-506 leads to the formation of a multitude of short-lived species with variable cytotoxicity. (A) Bioreductive metabolism of CP-506 under normoxic (21% O2) and anoxic conditions (<1 ppm O2). Concentrations of CP-506 and its metabolites (CP-506H, CP-506M and CP-506M-Cl2) were quantified by mass spectrometry with reference to the appropriate deuterated (D8) internal standard. Values are the mean ± SEM for three independent experiments. (B) Stability of CP-506 metabolites in culture medium (without cells) at 37°C. Concentrations were determined by mass spectrometry using standard curves generated from authenticated stocks. […] IC50 values are the mean ± SEM of duplicate wells for three independent experiments. T-tests were performed using GraphPad Prism 8 (ns, p-value > 0.05; *, p-value ≤ 0.05; **, p-value ≤ 0.01; ***, p-value ≤ 0.001).

[4] = ref Hicks et al., 2007; Foehrenbacher et al., 2013a, 2013b; cited from earlier work
[5] = ref Guise et al., 2010; cited from earlier work
[6] = tested on: HCT-116 cells (PORko-G, HCT-116 WT, POR-R); assay: Cellular metabolism assay (LC-MS/MS of reduced metabolites); type: in vitro ADME, human; settings: anoxic cultures
Procedure: Aerobic and anoxic conditions were achieved as described above. Cells (5 x 10^5 per well) were seeded with 350 µl medium in duplicate into 24-well plates and left to attach for 2 h in a humidified 37°C incubator. A working solution of CP-506 was prepared in culture medium to achieve a 100 µM concentration in each well after the addition of a 500 µl volume. Plates were exposed to drug for 1 h in a humidified 37°C incubator. Metabolism was then halted by the addition of two-volumes of ice-cold acetonitrile containing 2 µM of internal standard for each analyte. Samples were stored at −80°C until LC-MS/MS analysis.
as §1

[7] = stirred medium without serum or cells

SMILES: N[14C](N)=O [[^14C]-urea]
DMCL in HCT-116 MCLs [1]: 3.67 x 10^−7 cm^2 s^−1

SMILES: CCN1CCN(C(=O)c2cc(N(CCCl)CCCl)c(S(C)(=O)=O)cc2NO)CC1 [CP-506H-Cl2, (5-(Bis(2-chloroethyl)amino)-2-(hydroxyamino)-4-(methylsulfonyl)phenyl)(4-ethylpiperazin-1-yl)methanone]
half-life at 100 µM [2]: 2.35 h | Fold longer half-life than CP-506H or CP-506M ([2]; stirred medium, Figure 3B): ≥ 10 fold | Anti-proliferative IC50 of metabolite ([3]; direct exposure of monolayers to authentic metabolite, Figure 3C: 5 days, normoxic 21% O2): limited potency

SMILES: CS(=O)(=O)OCCN(CCBr)c1c(C(=O)NCCO)cc([N+](=O)[O-])cc1[N+](=O)[O-] [PR-104A, reference compound]
KO2 (O2 concentration of half-maximal activation) [4]: 0.126 µM O2 | Safe human exposure levels as percent of those observed in mice [5]: 10–29%

half-life at 100 µM [2, 7]: 6.56 h
SMILES: CCN1CCN(C(=O)c2cc(N(CCO)CCO)c(S(C)(=O)=O)cc2N)CC1 [CP-506M-(OH)2, (2-Amino-5-(bis(2-hydroxyethyl)amino)-4-(methylsulfonyl)phenyl)(4-ethylpiperazin-1-yl)methanone]
Concentration up to which the cell line panel was not sensitive ([3]; Figure 3C): > 100 µM

half-life at 100 µM [2, 7]: 0.0417 h | Detection of metabolite in anoxic cultures [6]: undetectable
SMILES: CCN1CCN(C(=O)c2cc(N(CCO)CCO)c(S(C)(=O)=O)cc2NO)CC1 [CP-506H-(OH)2, (5-(Bis(2-hydroxyethyl)amino)-2-(hydroxyamino)-4-(methylsulfonyl)phenyl)(4-ethylpiperazin-1-yl)methanone]
